Data taken from patent US9663458B2, “Diaminoguanidine derivatives and application thereof in preparation of animal growth promoters used in feed” (priority 2014, dated 2017).
Several values for one entry are separate records, joined by “and”; a condition that tells them apart may be missing. Identical values can stand only once. Like-named read-outs stand apart in the source and are kept apart here.

Columns and labels:
Clostridium perfringens = experiment: microbe, parasite or virus in culture; type: cell-based
cherry valley ducks = experiment: Feeding trial (ducks); type: in vivo; conditions: 20 ppm in basal diet, 30 days; for Average feed conversion efficiency: control 2.16; for Average weight gain: control 55.8
Excerpt: 800 1-day-old cherry valley ducks were divided into 8 groups, 100 ducks in each group. […] The compounds of IST_007 series can substantially enhance the productivity of the ducks, concluded from the results.

[1] = system: yellow feather broilers (female); experiment: Feeding trial (broilers); type: in vivo; conditions: 20 ppm in feed, 30 days; for Feed conversion efficiency: controls 2.15, 2.11, hydrochloride; for Average daily weight gain: controls 23.7, hydrochloride; for Average weight gain: controls 713, 712, hydrochloride; for Consumption: group of 50, controls 76.6, 75.2, hydrochloride
Excerpt: 400 1-day-aged, healthy, fast-grown yellow feather broilers (female) in the same growing state and similar in weight were randomly divided into eight groups according to table 5, 50 broilers in each group. Broilers in each group were fed with different dosage of the IST_007 series compounds.

[2] = system: Duroc-YorkShire-Landrace crossbred lean pigs; experiment: Feeding trial (pigs); conditions: 25 mg/kg mixed with feed, 14 days; for Average daily weight gain: controls 0.44, 0.43, hydrochloride; for Feed conversion efficiency: controls 2.13, 2.11, hydrochloride; for Average weight gain: controls 6.2, 6.1, hydrochloride; for Consumption: group of 15, controls 198.3, 192.9, hydrochloride
[3] = read-out: Minimum inhibitory concentration (MIC), strain CP-JM-1208-H, in vitro
[4] = read-out: Minimum inhibitory concentration (MIC), strain CP-JM-1210-B, in vitro
[5] = read-out: Minimum inhibitory concentration (MIC), strain CP-JM-1210-E, in vitro
[6] = read-out: Minimum inhibitory concentration (MIC), strain RA-FS-1308-1, in vitro
[7] = read-out: Minimum inhibitory concentration (MIC), strain RA-GD-1211-D, in vitro
[8] = read-out: Minimum inhibitory concentration (MIC), strain RA-HN-1211-C, in vitro

SMILES	MIC (Clostridium perfringens; [3]) [µg/mL]	MIC (Clostridium perfringens; [4]) [µg/mL]	MIC (Clostridium perfringens; [5]) [µg/mL]	Survival rate (%) (cherry valley ducks)	Average feed conversion efficiency (cherry valley ducks)	Average weight gain (cherry valley ducks)	MIC (Riemerella anatipestifer; [6]) [µg/mL]	MIC (Riemerella anatipestifer; [7]) [µg/mL]	MIC (Riemerella anatipestifer; [8]) [µg/mL]	Survival rate (%) [1] [%]	Feed conversion efficiency [1]	Average daily weight gain [1]	Average weight gain [1]	Consumption [1]	Average daily weight gain [2]	Feed conversion efficiency [2]	Average weight gain [2]	Consumption [2]	MIC (Riemerella anatipestifer; read-out: Minimum inhibitory concentration (MIC)) [µg/mL]
CCC(C)Oc1ccc(C=NNC(=N)NN=Cc2ccc(OC(C)CC)cc2)cc1.Cl (centres unmarked) [IST_007_022, 1,3-bis[(4-sec-butoxybenzylidene)amino]guanidine hydrochloride]	12.5	12.5	12.5	100	2.08	61.3	1.56	0.2	1.56	–	–	–	–	–	–	–	–	–	–
CCCCOc1ccc(C=NNC(=N)NN=Cc2ccc(OCCCC)cc2)cc1.Cl [IST_007_005, 1,3-bis[(4-butoxybenzylidene)amino]guanidine hydrochloride]	12.5	0.78	25	100	2.07	62.4	1.56	1.56	1.56	100	1.86 and 1.84	26.5 g and 26.2 g	796 g and 787 g	74.1 kg and 72.5 kg	–	–	–	–	–
CCCCCOc1ccc(C=NNC(=N)NN=Cc2ccc(OCCCCC)cc2)cc1.Cl [IST_007_019, 1,3-bis[(4-pentoxybenzylidene)amino]guanidine hydrochloride]	> 200	> 200	> 200	–	–	–	> 200	0.39	> 200	–	–	–	–	–	–	–	–	–	–
CCC(CC)Oc1ccc(C=NNC(=N)NN=Cc2ccc(OC(CC)CC)cc2)cc1.Cl [IST_007_023, 1,3-bis[[4-(3-pentoxy)benzylidene]amino]guanidine hydrochloride]	12.5	12.5	12.5	100	2.05	62.4	1.56	0.78	1.56	–	–	–	–	–	–	–	–	–	–
CC(C)Oc1ccc(C=NNC(=N)NN=Cc2ccc(OC(C)C)cc2)cc1.Cl [IST_007_003, 1,3-bis[(4-isopropoxybenzylidene)amino]guanidine hydrochloride]	12.5	3.13	12.5	100	2.03	63.6	1.56	1.56	1.56	100	1.86 and 1.82	26.3 g and 26.5 g	791 g and 795 g	73.7 kg and 72.3 kg	0.56 kg/day and 0.58 kg/day	1.84 and 1.65	7.8 kg and 8.2 kg	215.3 kg and 203.4 kg	–
CCCOc1ccc(C=NNC(=N)NN=Cc2ccc(OCCC)cc2)cc1.Cl [IST_007_028, 1,3-bis[(4-propoxybenzylidene)amino]guanidine hydrochloride]	1.56	1.56	1.56	100	2.04	61.6	–	0.39	0.39	–	–	–	–	–	0.55 kg/day and 0.52 kg/day	1.75 and 1.85	7.7 kg and 7.3 kg	201.3 kg and 202.5 kg	1.56
CCCCCCCCOc1ccc(C=NNC(=N)NN=Cc2ccc(OCCCCCCCC)cc2)cc1.Cl [IST_007_020, 1,3-bis[(4-octoxybenzylidene)amino]guanidine hydrochloride]	> 200	> 200	> 200	–	–	–	> 200	> 200	> 200	–	–	–	–	–	–	–	–	–	–
Cl.N=C(NN=Cc1ccc(OCc2ccccc2)cc1)NN=Cc1ccc(OCc2ccccc2)cc1 [IST_007_025, 1,3-bis[(4-benzyloxybenzylidene)amino]guanidine hydrochloride]	> 200	100	> 200	–	–	–	> 200	0.39	> 200	–	–	–	–	–	–	–	–	–	–
Cl.N=C(NN=Cc1ccc(OC2CCCC2)cc1)NN=Cc1ccc(OC2CCCC2)cc1 [IST_007_024, 1,3-bis[(4-cyclopentoxybenzylidene)amino]guanidine hydrochloride]	1.56	1.56	3.13	100	2.09	63.1	0.39	0.78	0.39	–	–	–	–	–	–	–	–	–	–
CCOc1ccc(C=NNC(=N)NN=Cc2ccc(OCC)cc2)cc1.Cl [IST_007_002, 1,3-bis[(4-ethoxybenzylidene)amino]guanidine hydrochloride]	> 100	0.2	> 100	–	–	–	> 100	> 100	> 100	–	–	–	–	–	–	–	–	–	–
COc1ccc(/C=N/NC(=N)N/N=C/c2ccc(OC)cc2)cc1.Cl [IST_007_001, 1,3-bis[(4-methoxybenzylidene)amino]guanidine hydrochloride]	12.5	1.56	50	100	2.01	62.1	6.25	3.13	3.13	100	1.88 and 1.91	25.5 g and 25.8 g	764 g and 775 g	71.7 kg and 73.8 kg	–	–	–	–	–
